Values quoted from earlier work as cited in publication PMC8847371 (Nature Communications, 2022).

Assays:
[1] = system: COVID-19; design: method as in recent press release; settings: early administration, high risk patients with mild to moderate symptoms; ref recent press release; cited from earlier work
[2] = system: SARS-CoV-2 VoC; settings: cited from earlier work
[3] = system: SARS-CoV-2; settings: cited from earlier work
[4] = system: COVID-19; design: method as in MOVe-OUT trial (NCT04575597); settings: phase 3, high-risk patients with mild to moderate COVID-19; ref MOVe-OUT trial (NCT04575597); cited from earlier work

SMILES: CCC(CC)COC(=O)[C@H](C)N[P@](=O)(OC[C@H]1O[C@@](C#N)(c2ccc3c(N)ncnn23)[C@H](O)[C@@H]1O)Oc1ccccc1 [Veklury]
- reduction of likelihood of hospitalization [1]: 87%

SMILES: CC(C)C(=O)OC[C@H]1O[C@@H](n2ccc(NO)nc2=O)[C@H](O)[C@@H]1O [Molnupiravir]
- in vitro potency against the four VOC [2]: equipotent
- efficacy in the SARS-CoV-2 hamster infection model [3]: effective
- risk of hospitalization or death [4]: significant reduction
